Consider six compounds from patent publication US7029840B2 (priority 2000, dated 2006).

For test [1], the system named is intact cells of N. gonorrhoeae. In kind it is cell-based, N. gonorrhoeae ATCC 19424. Conditions: urine, room temperature; for average amplification MOTA values at day 0 versus day 6: 100 mM sodium citrate, sodium fluoride, sodium borate, 5 mM EDTA. The procedure: (§1) The samples were spiked with cells of N. gonorrhoeae a final concentration 2500 cells/ml. Each sample was incubated for 14 days at room temperature. At specific time points (day 0, 6, and 14), 2.0-ml volumes of each sample (eight replicates) was centrifuged at 2000×g for 30 minutes at room temperature. The supernate was decanted and the cell pellet was resuspended with a 2.0-ml volume of BSA/PBS, and then centrifuged at 2000×g for 30 minutes at room temperature. Again, the supernatant was decanted and the cell pellet was resuspended with a 2.0-ml volume of CT/GC diluent. […] SDA was performed on the cell lysate as described in Example 1.
Forty-milliliter volumes of negative urine was prepared with 100 mM sodium citrate (final concentration); 5, 10, and 15% (v/v) sucrose (final concentration); 5, 10, and 15% (v/v) PVP (final concentration); 5, 10, and 15 mM magnesium chloride (final concentration); 10 and 100 mM sodium fluoride (final concentration); 10 and 100 mM sodium formate (final concentration); 10 and 100 mM sodium borate (final concentration); 0.5 and 5 mM EDTA (final concentration); 0.5 and 5 mM EGTA (final concentration); and without chemical additive. The samples were spiked with cells of N. gonorrhoeae at a final concentration of 2500 cells/ml. Each sample was incubated for 6 days at room temperature. At specific time points (day 0 and 6), the samples were processed by centrifugation at 2000×g as described in Example 2. […] SDA was performed on the cell lysate as described in Example 1.

Test [2] concerns intact cells of N. gonorrhoeae. It is filed as cell-based, N. gonorrhoeae ATCC 19424. Particulars: for average MOTA values for day 0 versus day 6: 100 mM sodium citrate, sodium fluoride, sodium borate, 5 mM EDTA, urine at 5, 25, 35, and 45° C.; for Average MOTA Value: 100 mM, urine. How it is done: as §1
The samples were spiked with cells of N. gonorrhoeae at a final concentration of 2500 cells/ml. Each sample was incubated for 6 days at 5, 25, 35, and 45° C. At specific time points (day 0 and 6), the samples were processed by centrifugation at 2000×g as described in Example 2. […] SDA was performed on the cell lysates as described in Example 1.

Test [3] relates to N. gonorrhoeae plasmid DNA. The test can be described thus: Stability of N. gonorrhoeae plasmid DNA in urine, 3 days at room temperature (SDA, MOTA value). It is filed as biochemical, Neisseria gonorrhoeae. Particulars: 100 mM. The procedure:
The samples were incubated for 3 days at room temperature. […] SDA was performed on the isolated DNA as described in Example 1.

Where two headings read alike, the source gives them in different places.

Take `OC[C@H]1O[C@@](CO)(O[C@H]2O[C@H](CO)[C@@H](O)[C@H](O)[C@H]2O)[C@@H](O)[C@@H]1O` [sucrose, Sucrose]: the “Average MOTA Value” in test [1] (5% (v/v), Day 0) amounted to 28427; in test [1] (5% (v/v), Day 6), 501; in test [1] (10% (v/v), Day 0), 29548; in test [1] (10% (v/v), Day 6), 5555; in test [1] (15% (v/v), Day 0), 27391; in test [1] (15% (v/v), Day 6), 8497.

As for `O.O.O.O.O.O.O.O.O.O.[Na+].[Na+].[O-]B1OB2OB([O-])OB(O1)O2` [sodium borate, Sodium borate], the “average MOTA values for day 0 versus day 6” value in test [2] was “no significant difference”. The “Average MOTA Value” in test [2] (5° C., Day 0) is 41940; in test [2] (5° C., Day 6) it was 40325; in test [2] (25° C., Day 0) it was 49622; in test [2] (25° C., Day 6) it was 50745; in test [2] (35° C., Day 0), 60308; in test [2] (35° C., Day 6) it was 60296. Further, the “Average MOTA Value” in test [2] (45° C., Day 0) is 63343; in test [2] (45° C., Day 6), 62283; in test [1] (10 mM, Day 0), 26170; in test [1] (10 mM, Day 6), 15464; in test [1] (100 mM, Day 0), 24607; in test [1] (100 mM, Day 6), 28908. Also, the “Average MOTA Value” is on record as 23263 in test [3] (Day 0) and 34089 in test [3] (Day 3). In addition, in test [1], the “average amplification MOTA values at day 0 versus day 6” value is listed as “not significantly different”.

For `O=C[O-].[Na+]` [sodium formate, Sodium formate], the “Average MOTA Value” in test [1] (10 mM, Day 0) was determined as 34446; in test [1] (10 mM, Day 6) it was 2211; in test [1] (100 mM, Day 0) it was 29357; in test [1] (100 mM, Day 6), 2139.

Take `[Cl-].[Cl-].[Mg+2]` [MgCl^2, Magnesium chloride]: the “Average MOTA Value” stood at 28072 in test [1] (5 mM, Day 0); 1507 in test [1] (5 mM, Day 6); 27157 in test [1] (10 mM, Day 0); 4547 in test [1] (10 mM, Day 6); 35926 in test [1] (15 mM, Day 0); 4868 in test [1] (15 mM, Day 6).

Regarding `O=C(O)CN(CCOCCOCCN(CC(=O)O)CC(=O)O)CC(=O)O` [EGTA, Ethylenebis(oxyethylenenitrilo) tetraacetic acid], the “Average MOTA Value” in test [1] (0.5 mM, Day 0) is recorded as 32611; in test [1] (0.5 mM, Day 6), 1150; in test [1] (5 mM, Day 0) it was 34504; in test [1] (5 mM, Day 6), 6931.

In the case of `[F-].[Na+]` [sodium fluoride, Sodium fluoride], the “average MOTA values for day 0 versus day 6” value in test [2] is reported as “no significant difference”. Also, the “Average MOTA Value” in test [2] (5° C., Day 0) is given as 43807; in test [2] (5° C., Day 6), 59543; in test [2] (25° C., Day 0), 44945; in test [2] (25° C., Day 6), 47391; in test [2] (35° C., Day 0) it was 41608; in test [2] (35° C., Day 6), 47347. Also, the “Average MOTA Value” in test [2] (45° C., Day 0) was 45741; in test [2] (45° C., Day 6) it was 48043; in test [1] (10 mM, Day 0), 32162; in test [1] (10 mM, Day 6) it was 10894; in test [1] (100 mM, Day 0), 26385; in test [1] (100 mM, Day 6), 24559. Moreover, the “Average MOTA Value” is given as 27811 in test [3] (Day 0) and 42689 in test [3] (Day 3). The “average amplification MOTA values at day 0 versus day 6” value in test [1] was “not significantly different”.
